Data on one molecule can be found in ChEMBL document CHEMBL4428063, “Novel Pyrimidine Toll-like Receptor 7 and 8 Dual Agonists to Treat Hepatitis B Virus” (J Med Chem, 2016).

In general, bioavailability refers to dose-corrected exposure relative to a reference, in per cent. The Tmax is the time at which the peak concentration occurs. What is called Cmax is the highest concentration seen after dosing.

Activity calls are given as the source filed them. The calls are words filed in the database; no cut-off is given here.

Data set [1] in a line: Oral bioavailability in cynomolgus monkey at 3 mg/kg, measured after 24 hrs. Type of data set: ADME, organism-based, Macaca fascicularis. Particulars: in vivo.
Data set [2] is described as follows: Tmax in cynomolgus monkey plasma at 3 mg/kg, administered through oral gavage measured after 24 hrs. Format: ADME, organism-based, Macaca fascicularis.
Data set [3] is described as follows: Intrinsic clearance in human hepatocytes at 1 uM measured after 120 mins. Type of data set: ADME, cell-based, Hepatocyte. Particulars: 2 h.
Data set [4] has as its target T1, Toll-like receptor 7 (Homo sapiens) (UniProt Q9NYK1).
T1 sequence (whole entry): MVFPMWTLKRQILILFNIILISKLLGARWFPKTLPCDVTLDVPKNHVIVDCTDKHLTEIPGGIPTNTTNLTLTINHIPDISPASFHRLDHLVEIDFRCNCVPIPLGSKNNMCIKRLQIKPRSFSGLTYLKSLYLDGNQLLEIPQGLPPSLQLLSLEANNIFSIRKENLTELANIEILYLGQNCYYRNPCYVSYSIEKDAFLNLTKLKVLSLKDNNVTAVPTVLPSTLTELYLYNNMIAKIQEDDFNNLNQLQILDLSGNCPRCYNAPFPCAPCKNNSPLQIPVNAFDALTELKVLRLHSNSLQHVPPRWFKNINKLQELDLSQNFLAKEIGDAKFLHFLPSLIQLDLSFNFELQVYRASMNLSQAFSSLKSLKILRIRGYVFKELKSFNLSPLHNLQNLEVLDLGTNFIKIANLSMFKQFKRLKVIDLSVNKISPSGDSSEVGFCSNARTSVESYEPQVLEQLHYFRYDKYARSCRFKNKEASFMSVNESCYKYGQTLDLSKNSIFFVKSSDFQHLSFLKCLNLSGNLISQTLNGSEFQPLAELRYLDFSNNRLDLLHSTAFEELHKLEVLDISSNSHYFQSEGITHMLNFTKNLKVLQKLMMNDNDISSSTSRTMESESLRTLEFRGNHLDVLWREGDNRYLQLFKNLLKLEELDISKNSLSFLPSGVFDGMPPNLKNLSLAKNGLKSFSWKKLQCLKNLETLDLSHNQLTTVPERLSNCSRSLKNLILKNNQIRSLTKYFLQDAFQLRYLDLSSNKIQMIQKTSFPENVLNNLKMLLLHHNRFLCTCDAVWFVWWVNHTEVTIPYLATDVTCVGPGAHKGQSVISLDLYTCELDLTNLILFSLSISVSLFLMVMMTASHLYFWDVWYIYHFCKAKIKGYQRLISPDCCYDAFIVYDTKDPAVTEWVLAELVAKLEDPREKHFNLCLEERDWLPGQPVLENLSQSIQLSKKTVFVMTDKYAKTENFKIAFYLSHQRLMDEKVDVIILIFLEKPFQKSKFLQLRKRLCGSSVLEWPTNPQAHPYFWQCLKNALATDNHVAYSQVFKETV
The data set can be described thus: Agonist activity at human TLR7 expressed in HEK293 cells measured after 6 hrs by NF-kappaB luciferase reporter gene assay. Format: cell-based. (In general: In a reporter assay the amount or activity of a reporter protein is the signal.)

The nature of data set [5]: Intrinsic clearance in dog liver microsomes assessed per mg protein at 1 uM measured after 60 mins. As to conditions: read-out: CLH. Format: ADME, Canis lupus familiaris, Microsome. In general terms: Microsomes from liver hold many membrane-bound enzymes, among them those of drug oxidation.
The nature of data set [6]: Intrinsic clearance in Sprague-Dawley rat liver microsomes assessed per mg protein at 1 uM measured after 60 mins. Type of data set: ADME, Microsome. Particulars: read-out: CLH.
Data set [7] concerns the target T2, Toll-like receptor 1 (Homo sapiens) (UniProt Q15399).
T2 sequence (whole entry): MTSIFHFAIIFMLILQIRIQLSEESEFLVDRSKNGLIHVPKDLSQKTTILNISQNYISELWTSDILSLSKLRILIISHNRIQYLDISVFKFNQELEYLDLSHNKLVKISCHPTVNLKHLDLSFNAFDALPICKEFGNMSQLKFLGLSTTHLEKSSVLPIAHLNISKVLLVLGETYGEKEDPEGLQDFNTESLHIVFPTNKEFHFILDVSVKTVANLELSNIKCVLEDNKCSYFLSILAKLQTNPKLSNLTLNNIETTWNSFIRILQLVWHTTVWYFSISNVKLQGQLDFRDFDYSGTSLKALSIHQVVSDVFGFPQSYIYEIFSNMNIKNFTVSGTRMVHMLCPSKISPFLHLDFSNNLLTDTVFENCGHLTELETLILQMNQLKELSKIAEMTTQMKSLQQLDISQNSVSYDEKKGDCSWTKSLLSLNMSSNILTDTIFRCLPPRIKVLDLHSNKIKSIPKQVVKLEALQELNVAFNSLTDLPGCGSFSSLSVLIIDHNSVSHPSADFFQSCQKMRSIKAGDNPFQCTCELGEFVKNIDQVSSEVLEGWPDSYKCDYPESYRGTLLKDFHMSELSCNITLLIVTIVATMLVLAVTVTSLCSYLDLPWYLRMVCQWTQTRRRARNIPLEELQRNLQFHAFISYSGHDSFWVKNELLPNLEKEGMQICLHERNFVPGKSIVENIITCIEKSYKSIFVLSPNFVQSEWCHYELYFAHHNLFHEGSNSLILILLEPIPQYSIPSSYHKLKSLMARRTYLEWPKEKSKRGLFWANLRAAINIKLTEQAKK
The data set can be described thus: Agonist activity at wild-type human TLR1 expressed in HEK293 cells up to 25 uM measured after 6 hrs by NF-kappaB luciferase reporter gene assay. Type of data set: cell-based.

Data set [8] is described as follows: Cmax in cynomolgus monkey plasma at 3 mg/kg, administered through oral gavage measured after 24 hrs. Type of data set: ADME, organism-based, Macaca fascicularis. Further details: dose 3 mg/kg, route oral.
Data set [9] in a line: Cmax in cynomolgus monkey plasma at 30 mg/kg, administered through oral gavage measured after 24 hrs. Type of data set: ADME, organism-based, Macaca fascicularis. The arrangement: dose 30 mg/kg, route oral.

Turning to `CCCC[C@@H](CCO)Nc1nc(N)ncc1OC`, in data set [1], the bioavailability was 0.8%. Moreover, the Tmax in data set [2] is 1 h. In addition, the CLH in data set [3] came out at 18 µL/min. Moreover, the LED in data set [4] came out at 1.6 µM. In addition, the values for the microsomal CLint at 1 µM in [5] and in [6] were 7 µL/min/mg and 60 µL/min/mg, respectively. In addition, the outcome in data set [7] was inactive. In addition, the figures for the Cmax in [8] and in data set [9] were 7 ng/mL and 355 ng/mL, respectively.
